Laboratory results reported in US20120157472A1, “METHOD FOR TREATING COLORECTAL CANCER” (BOEHRINGER INGELHEIM INTERNATIONAL GMBH, priority 2009, published 2012).
Entries after “also recorded” stand apart in the source; their conditions may differ.

Experiments:
[1] = system: human colorectal cancer cell lines; assay: In vitro effects on human colorectal cancer cell lines; format: cell-based; conditions: for cytotoxic activity: conclusion, single agent; for growth inhibition / cell cycle effect: exposure of colorectal cancer cells to single agent
Description: (§1) A panel of 14 well-characterized human colorectal cancer cell lines were used to characterize the in vitro effects of BIBF 1120 (B1), BIBW 2992 (B2) and their combinations. The antitumor effects of the 2 drugs were evaluated in mice with HT-29 colorectal xenografts.

[2] = system: HT-29 colorectal xenografts; assay: Tumor growth inhibition in mice with HT-29 colorectal xenografts; format: in vivo; conditions: single agent, daily 10 mg/kg p.o., HT-29 xenografts, sub-optimal dose
Description: as §1
The tumor growth inhibitory activities of B1 and B2 were determined for HT-29 xenografts after daily drug administration (10 mg/kg p.o.) or, for control animals, by oral administration of the solvent. […] Since the studies were designed to detect additive or synergistic interactions between the two drugs in subsequent experiments, only sub-optimal doses were used in these studies. Each group represents at least seven mice.
The tumor growth inhibitory activities of B1 and B2 were determined for HT-29 xenografts after daily drug administration (10 mg/kg p.o.) or, for control animals, by oral administration of the solvent.

angiogenesis = assay: Angiogenesis inhibition by CD31 staining; format: in vivo

| Structure (SMILES) | cytotoxic activity [1] | growth inhibition / cell cycle effect [1] | tumor growth inhibitory activity (tumor volume over treatment time) [2] | inhibition of angiogenesis (angiogenesis) |
| --- | --- | --- | --- | --- |
| COC(=O)c1ccc2c(c1)NC(=O)/C2=C(\Nc1ccc(N(C)C(=O)CN2CCN(C)CC2)cc1)c1ccccc1 [B1, 3-Z-[1-(4-(N-((4-methyl-piperazin-1-yl)-methylcarbonyl)-N-methyl-amino)-anilino)-1-phenyl-methylene]-6-methoxycarbonyl-2-indolinone] | cytotoxic | growth inhibition linked to extensive G1 arrest | exhibit growth inhibitor activity | inhibited angiogenesis; also recorded: antiangiogenic activity |
| CN(C)C/C=C/C(=O)Nc1cc2c(Nc3ccc(F)c(Cl)c3)ncnc2cc1O[C@H]1CCOC1 [B2, 4-[(3-chloro-4-fluorophenyl)amino]-6-{[4-(N,N-dimethylamino)-1-oxo-2-buten-1-yl]amino}-7-((S)-tetrahydrofuran-3-yloxy)-quinazoline] | cytotoxic | growth inhibition linked to extensive G1 arrest | exhibit growth inhibitor activity | inhibited angiogenesis; also recorded: antiangiogenic activity |
